Source: US8440724B2, “Inhibiting neurotransmitter reuptake” (Mayo Foundation for Medical Education and Research, priority 2008, dated 2013)
“Also recorded” adds a separate entry of the source. Like-named read-outs stand apart in the source and are kept apart here.

What was measured:
hSERT, hNET, hDAT = experiment: Human transporter binding: rank order and range of potency over the three transporters; settings: for Potency (rank-order of potency of binding; S = hSERT, N = hNET, D = hDAT): from KD values; for Potency Range (difference between most potent and least potent binding): ratio of KD over hSERT, hNET, hDAT
Excerpt: The program was modified to calculate the Hill coefficient (nH). Data are presented as geometric mean±S.E.M. of at least three independent experiments. One-component models and two-component models were compared using the root mean square error of each fit and the F test.

[1] = target: T1, rat serotonin transporter, synaptosomal preparations (Rattus norvegicus, UniProt P31652); experiment: Inhibition of [3H]5-HT reuptake in rat brain synaptosomes (frontal cortex); type: biochemical
T1 construct: from tissue; host or cells: rat frontal cortex synaptosomes (male Sprague-Dawley)
T1 sequence (P31652 whole entry): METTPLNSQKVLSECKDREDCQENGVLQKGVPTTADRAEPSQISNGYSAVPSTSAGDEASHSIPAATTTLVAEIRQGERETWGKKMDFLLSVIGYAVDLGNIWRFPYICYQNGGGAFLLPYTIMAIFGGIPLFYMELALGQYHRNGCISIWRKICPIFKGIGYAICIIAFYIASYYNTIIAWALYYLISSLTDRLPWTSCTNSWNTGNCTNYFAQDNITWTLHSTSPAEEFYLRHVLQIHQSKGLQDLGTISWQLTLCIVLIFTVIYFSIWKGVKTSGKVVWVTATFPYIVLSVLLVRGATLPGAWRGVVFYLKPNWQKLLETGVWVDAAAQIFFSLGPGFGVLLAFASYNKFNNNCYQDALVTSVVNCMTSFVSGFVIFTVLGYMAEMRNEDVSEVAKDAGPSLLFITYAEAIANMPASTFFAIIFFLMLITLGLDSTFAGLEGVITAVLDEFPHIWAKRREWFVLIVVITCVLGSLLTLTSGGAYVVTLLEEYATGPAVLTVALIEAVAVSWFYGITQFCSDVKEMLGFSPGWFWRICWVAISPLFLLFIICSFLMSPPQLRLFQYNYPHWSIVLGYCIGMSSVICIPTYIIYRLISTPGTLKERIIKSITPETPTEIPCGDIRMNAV
Experimental: (§1) The dissected tissues were separately homogenized in 20 volumes (cortical) or 40 volumes (striatal) of ice-cold, oxygenated HEPES buffer 0.32 M sucrose containing 11 mM glucose (pH 7.4) in a glass Potter-Elvehjem homogenizer with Teflon® pestle (8 strokes, 900 rpm). The homogenates were centrifuged at 1,000×g for 10 minutes. The resulting supernatant was decanted and further centrifuged at 20,000×g for 20 minutes at 4° C. […] The synaptosomal protein concentration was determined by using the BCA assay (Pierce Biotechnology Inc, Rockford, Ill.), according to the manufacturer's instructions. Synaptosomal protein (1.0-2.5 mg) was suspended in 1 mL oxygenated incubation buffer as defined above. Test amine compound was pre-incubated with the synaptosomal preparation for 30 minutes at 37° C. in a shaking water bath (80 oscillations/minute).

[2] = target: human norepinephrine transporter (Homo sapiens, UniProt P23975); experiment: Inhibition of [3H]NE transport into HEK-293 cells expressing the human transporter
Sequence of human norepinephrine transporter (P23975 whole entry): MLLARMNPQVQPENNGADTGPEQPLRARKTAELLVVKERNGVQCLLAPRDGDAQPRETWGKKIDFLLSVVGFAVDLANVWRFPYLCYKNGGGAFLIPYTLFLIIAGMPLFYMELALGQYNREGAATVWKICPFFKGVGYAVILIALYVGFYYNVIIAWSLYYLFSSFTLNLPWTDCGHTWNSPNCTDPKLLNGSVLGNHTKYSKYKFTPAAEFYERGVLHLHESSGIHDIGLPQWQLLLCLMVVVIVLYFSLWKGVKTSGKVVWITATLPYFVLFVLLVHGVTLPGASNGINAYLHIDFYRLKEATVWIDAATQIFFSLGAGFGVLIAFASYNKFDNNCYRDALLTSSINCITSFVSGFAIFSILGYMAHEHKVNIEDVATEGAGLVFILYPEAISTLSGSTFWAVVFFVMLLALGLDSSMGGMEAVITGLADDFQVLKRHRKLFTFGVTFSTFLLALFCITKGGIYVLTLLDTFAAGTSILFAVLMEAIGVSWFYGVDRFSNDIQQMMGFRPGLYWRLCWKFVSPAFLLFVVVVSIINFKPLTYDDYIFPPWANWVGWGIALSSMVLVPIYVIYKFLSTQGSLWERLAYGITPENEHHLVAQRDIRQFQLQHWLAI

[3] = target: T2, rat dopamine transporter, synaptosomal preparations (Rattus norvegicus, UniProt P23977); experiment: Inhibition of [3H]DA reuptake in rat brain synaptosomes (striatum); type: biochemical
T2 construct: and striatal tissues for transport of dopamine; from tissue; host or cells: rat striatum synaptosomes (male Sprague-Dawley)
T2 sequence (P23977 whole entry): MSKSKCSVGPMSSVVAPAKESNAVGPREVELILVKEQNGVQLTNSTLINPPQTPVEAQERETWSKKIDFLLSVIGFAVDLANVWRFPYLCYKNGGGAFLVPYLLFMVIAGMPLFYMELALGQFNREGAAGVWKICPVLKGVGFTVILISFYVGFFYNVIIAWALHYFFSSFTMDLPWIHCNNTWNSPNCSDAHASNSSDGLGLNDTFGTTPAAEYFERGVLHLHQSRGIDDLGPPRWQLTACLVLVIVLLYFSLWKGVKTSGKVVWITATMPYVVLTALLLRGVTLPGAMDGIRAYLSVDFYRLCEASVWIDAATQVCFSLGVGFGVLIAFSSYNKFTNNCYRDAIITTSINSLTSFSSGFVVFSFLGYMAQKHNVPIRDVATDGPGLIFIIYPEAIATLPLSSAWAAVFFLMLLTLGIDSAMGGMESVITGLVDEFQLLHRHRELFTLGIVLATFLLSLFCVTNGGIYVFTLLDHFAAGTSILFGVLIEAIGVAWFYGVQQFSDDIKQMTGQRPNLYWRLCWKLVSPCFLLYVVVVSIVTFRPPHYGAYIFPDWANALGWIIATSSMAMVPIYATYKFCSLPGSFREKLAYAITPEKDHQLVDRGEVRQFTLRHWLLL
Experimental: as §1

[4] = target: T3, human serotonin transporter (hSERT) (Homo sapiens, UniProt P31645); experiment: Radioligand binding to cloned hSERT, [3H]citalopram, HEK-293 cell membranes; settings: for Binding at hSERT compared to PRC200-SS: in words
T3 construct: expressed in transfected cells; host or cells: HEK-293, stably transfected
T3 sequence (P31645 whole entry): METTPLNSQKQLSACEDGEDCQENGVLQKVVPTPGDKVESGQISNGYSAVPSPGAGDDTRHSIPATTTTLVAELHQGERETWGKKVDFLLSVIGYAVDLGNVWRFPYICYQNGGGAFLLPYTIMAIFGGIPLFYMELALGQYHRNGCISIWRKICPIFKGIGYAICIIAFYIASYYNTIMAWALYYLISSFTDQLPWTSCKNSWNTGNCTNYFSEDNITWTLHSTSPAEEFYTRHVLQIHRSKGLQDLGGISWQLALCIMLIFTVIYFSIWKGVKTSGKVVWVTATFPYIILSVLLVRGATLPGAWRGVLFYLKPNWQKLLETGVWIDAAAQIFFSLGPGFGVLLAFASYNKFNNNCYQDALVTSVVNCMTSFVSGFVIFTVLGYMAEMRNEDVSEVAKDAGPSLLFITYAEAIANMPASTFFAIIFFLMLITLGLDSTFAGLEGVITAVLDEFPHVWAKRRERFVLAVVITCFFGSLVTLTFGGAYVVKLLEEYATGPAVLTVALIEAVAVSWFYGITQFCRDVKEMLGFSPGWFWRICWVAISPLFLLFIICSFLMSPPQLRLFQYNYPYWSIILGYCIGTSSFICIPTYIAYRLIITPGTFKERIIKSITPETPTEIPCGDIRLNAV

CYP2D6 = target: T4, CYP2D6 (Homo sapiens, UniProt P10635); experiment: CYP2D6 inhibition, CYP2D6/AMMC kit (BD Biosciences), fluorescent substrate; type: in vitro ADME; settings: for Potency of inhibition at CYP2D6, in words: compared with PRC200-SS
T4 construct: purchased BD Biosciences 459200
T4 sequence (P10635 whole entry): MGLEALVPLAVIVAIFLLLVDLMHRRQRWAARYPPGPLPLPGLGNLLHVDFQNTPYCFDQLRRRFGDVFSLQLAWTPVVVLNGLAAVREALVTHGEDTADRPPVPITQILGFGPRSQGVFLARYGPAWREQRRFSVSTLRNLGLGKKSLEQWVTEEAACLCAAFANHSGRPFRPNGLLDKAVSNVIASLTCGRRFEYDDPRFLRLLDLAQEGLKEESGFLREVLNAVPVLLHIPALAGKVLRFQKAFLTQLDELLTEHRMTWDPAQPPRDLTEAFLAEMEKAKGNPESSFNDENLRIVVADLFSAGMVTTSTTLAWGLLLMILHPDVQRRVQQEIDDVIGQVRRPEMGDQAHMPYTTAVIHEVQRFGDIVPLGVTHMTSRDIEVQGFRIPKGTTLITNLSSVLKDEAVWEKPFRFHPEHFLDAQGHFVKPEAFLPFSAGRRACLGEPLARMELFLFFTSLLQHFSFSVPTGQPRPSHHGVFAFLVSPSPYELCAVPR
Excerpt: This kit includes the use of a fluorescent P450 substrate (AMMC or 3-[2-(N,N-diethyl-N-methylamino)ethyl]-7-methoxy-4-methylcoumarin) and recombinant human P450.

hERG = hERG (Homo sapiens, UniProt Q12809); experiment: hERG assay: block of rubidium ion (Rb+) efflux from cells expressing hERG; settings: for Blocking of hERG channel compared with PRC200-SS: in words
Sequence of hERG (Q12809 whole entry): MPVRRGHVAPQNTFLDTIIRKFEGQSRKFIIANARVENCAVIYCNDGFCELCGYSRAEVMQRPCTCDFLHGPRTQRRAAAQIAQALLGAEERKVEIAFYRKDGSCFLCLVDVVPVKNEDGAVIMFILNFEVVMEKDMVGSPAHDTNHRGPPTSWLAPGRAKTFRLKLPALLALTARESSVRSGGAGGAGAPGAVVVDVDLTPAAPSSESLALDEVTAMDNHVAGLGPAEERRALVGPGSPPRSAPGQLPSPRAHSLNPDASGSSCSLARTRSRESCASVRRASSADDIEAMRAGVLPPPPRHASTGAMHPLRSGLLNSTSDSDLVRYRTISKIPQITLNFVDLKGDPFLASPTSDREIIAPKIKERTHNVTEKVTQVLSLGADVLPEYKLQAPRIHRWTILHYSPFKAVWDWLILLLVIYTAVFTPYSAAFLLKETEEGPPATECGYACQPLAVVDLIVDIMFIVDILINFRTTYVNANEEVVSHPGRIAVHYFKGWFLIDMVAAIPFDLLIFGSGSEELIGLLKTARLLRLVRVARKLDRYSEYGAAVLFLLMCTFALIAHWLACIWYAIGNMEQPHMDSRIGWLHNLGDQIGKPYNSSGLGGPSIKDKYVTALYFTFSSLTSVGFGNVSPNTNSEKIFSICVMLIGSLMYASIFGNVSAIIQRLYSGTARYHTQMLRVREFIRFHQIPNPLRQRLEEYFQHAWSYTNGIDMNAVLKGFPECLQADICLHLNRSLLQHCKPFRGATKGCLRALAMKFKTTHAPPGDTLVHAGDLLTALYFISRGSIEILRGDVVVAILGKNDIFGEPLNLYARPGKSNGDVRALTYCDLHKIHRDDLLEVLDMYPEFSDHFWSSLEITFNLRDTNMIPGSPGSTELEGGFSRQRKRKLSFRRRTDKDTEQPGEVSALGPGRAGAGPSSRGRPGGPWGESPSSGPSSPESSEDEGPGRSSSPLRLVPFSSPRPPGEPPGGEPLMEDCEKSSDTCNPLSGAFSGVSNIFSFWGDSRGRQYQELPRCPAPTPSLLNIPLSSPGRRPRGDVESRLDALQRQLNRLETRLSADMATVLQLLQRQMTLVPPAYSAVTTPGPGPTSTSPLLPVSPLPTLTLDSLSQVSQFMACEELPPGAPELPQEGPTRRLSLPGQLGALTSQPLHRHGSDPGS
Experimental: Human “ether-a-go-go” (hERG) is an ion channel. Blockade of this channel can be predictive of causing cardiac arrhythmias in humans. hERG assays were performed to measure the ability of a compound to block rubidium ion (Rb^+) efflux from cells expressing hERG. Cells were pre-loaded with Rb^+, incubated with test compound, and then exposed to a buffer that opens the channel and allows the efflux of ions. Compounds as powder were dissolved in 100% DMSO to prepare 100 mM stock solutions. […] The stocks were stored at 23° C.
The range of doses for the test compounds was 30 nM through 100,000 nM.

Male Sprague-Dawley rats = experiment: Forced swim test in rats; type: in vivo, rat
In short: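 Male Sprague-Dawley rats got a 15 min pretest swim, then a 5-minute test 24 h later. Immobility (floating, only head-keeping movements) and swimming scored as total counts per 5-min session; ANOVA with Tukey post-hoc test.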

[5] = Geometric Mean ± SEM, rat brain synaptosomes, read-out: Inhibitor Constant (Ki), DA transport
[6] = Geometric Mean ± SEM, rat brain synaptosomes, read-out: Inhibitor Constant (Ki), 5HT transport
[7] = Geometric Mean ± SEM, HCl salts, read-out: Equilibrium Dissociation Constant (KD) for Transporter Binding, hSERT (S)

CNCC(c1ccc2ccccc2c1)C(F)c1ccccc1 (racemic) [MCJ001-F-(±)-RR, (2R,3R/2S,3S)-3-fluoro-N-methyl-2-(naphthalen-2-yl)-3-phenylpropan-1-amine]
Potency (rank-order of potency of binding; S = hSERT, N = hNET, D = hDAT) (hSERT, hNET, hDAT): S > N > D
Potency Range (difference between most potent and least potent binding) (hSERT, hNET, hDAT): 36 fold
Ki [1]: 90 ± 7 nM
Ki [2]: 2.1 ± 0.5 nM
Ki [3, 5]: 250 ± 9 nM
Kd [4]: 3.9 ± 0.1 nM
Binding at hSERT compared to PRC200-SS [4]: greater binding at hSERT

CNC[C@H](c1ccc2ccccc2c1)[C@H](OCCCCCO[C@H](c1ccccc1)[C@H](CNC)c1ccc2ccccc2c1)c1ccccc1 [MCJ001-Dimer5-SS, (2S,2′S,3S,3′S)-3,3′-(pentane-1,5-diylbis(oxy))bis(N-methyl-2-(naphthalen-2-yl)-3-phenylpropan-1-amine)]
Potency (rank-order of potency of binding; S = hSERT, N = hNET, D = hDAT) (hSERT, hNET, hDAT): D > S > N
Potency Range (difference between most potent and least potent binding) (hSERT, hNET, hDAT): 1.4 fold
Ki [1, 6]: 150 ± 10 nM
Ki [2]: 720 nM
Ki [3, 5]: 800 ± 300 nM
Kd [4, 7]: 140 ± 30 nM

CNC[C@H](c1ccc2ccccc2c1)[C@@H](F)c1ccccc1 [MCJ001-F-RS, (2S,3R)-3-fluoro-N-methyl-2-(naphthalen-2-yl)-3-phenylpropan-1-amine]
Potency (rank-order of potency of binding; S = hSERT, N = hNET, D = hDAT) (hSERT, hNET, hDAT): N > S > D
Potency Range (difference between most potent and least potent binding) (hSERT, hNET, hDAT): 21 fold
Ki [1]: 9 ± 1.5 nM
Potency of inhibition at CYP2D6, in words (CYP2D6): markedly reduced the potency of inhibition at CYP2D6
IC50 (CYP2D6; recombinant human P450, AMMC substrate, read-out: Mean CYP2D6 (IC50)): 160 nM
IC50 (hERG): 92400 nM
Blocking of hERG channel compared with PRC200-SS (hERG): weaker than PRC200-SS at blocking this channel
Ki [2]: 4.8 nM
Immobility in forced swim test, 5 mg/kg IP vs 5 mg/kg PO of the same compound (Male Sprague-Dawley rats): statistically (P<0.02) more swimming and less immobility
Swimming in forced swim test, 5 mg/kg IP vs 5 mg/kg PO of the same compound (Male Sprague-Dawley rats): statistically (P<0.02) more swimming and less immobility
Climbing in forced swim test vs saline (Male Sprague-Dawley rats; 5 mg/kg IP): statistically (P<0.02) more swimming and climbing
Immobility in forced swim test vs saline (Male Sprague-Dawley rats; 5 mg/kg IP, 5 mg/kg): statistically (P<0.04) less immobility; also recorded: statistically (P<0.02) less immobility
Swimming in forced swim test vs saline (Male Sprague-Dawley rats; 5 mg/kg IP, 5 mg/kg): statistically (P<0.04) more swimming behavior; also recorded: statistically (P<0.02) more swimming and climbing
Antidepressant activity in forced swim test compared with imipramine (15 mg/kg IP) (Male Sprague-Dawley rats; 5 mg/kg IP, FIG. 12A): antidepressant activity that was similar to that observed in rats treated with the positive control
Immobility in forced swim test vs imipramine (15 mg/kg IP) (Male Sprague-Dawley rats; 5 mg/kg IP, FIG. 12A): statistically (P<0.04) less immobility than rats treated with imipramine
Climbing in forced swim test vs saline (Male Sprague-Dawley rats; 5 mg/kg PO): statistically (P<0.02) more swimming and climbing
Immobility in forced swim test vs saline (Male Sprague-Dawley rats; 5 mg/kg PO): statistically (P<0.02) less immobility
Swimming in forced swim test vs saline (Male Sprague-Dawley rats; 5 mg/kg PO): statistically (P<0.02) more swimming and climbing
Ki [3]: 58 ± 6 nM
Kd [4]: 2.8 ± 0.3 nM
Binding at hSERT compared to PRC200-SS [4]: greater binding at hSERT

CNC[C@@H](c1ccc2ccccc2c1)[C@H](F)c1ccccc1 [MCJ001-F-SR, (2R,3S)-3-fluoro-N-methyl-2-(naphthalen-2-yl)-3-phenylpropan-1-amine]
Potency (rank-order of potency of binding; S = hSERT, N = hNET, D = hDAT) (hSERT, hNET, hDAT): D > S > N
Potency (rank-order of potency of binding; S = hSERT, N = hNET, D = hDAT) (hSERT, hNET, hDAT; listed as MCJ001-F—SR): D>S>N
Potency Range (difference between most potent and least potent binding) (hSERT, hNET, hDAT): 12 fold
Ki [1]: 53 ± 12 nM
IC50 (hERG): 94000 nM
Blocking of hERG channel compared with PRC200-SS (hERG): weaker than PRC200-SS at blocking this channel
Immobility in forced swim test vs saline (Male Sprague-Dawley rats; 5 mg/kg IP): statistically (P<0.04) less immobility
Swimming in forced swim test vs saline (Male Sprague-Dawley rats; 5 mg/kg IP): statistically (P<0.04) more swimming behavior
Antidepressant activity in forced swim test compared with imipramine (15 mg/kg IP) (Male Sprague-Dawley rats; 5 mg/kg IP, FIG. 12A): antidepressant activity that was similar to that observed in rats treated with the positive control
Ki [3, 5]: 130 ± 20 nM
Kd [4]: 130 ± 20 nM
Binding at hSERT compared to PRC200-SS [4]: much more weakly at hNET and hSERT

CNC[C@H](c1ccc2ccccc2c1)[C@@H](N=[N+]=[N-])c1ccccc1 [MCJ001-N3-RS, (2S,3R)-3-azido-N-methyl-2-(naphthalen-2-yl)-3-phenylpropan-1-amine]
Potency (rank-order of potency of binding; S = hSERT, N = hNET, D = hDAT) (hSERT, hNET, hDAT): N > S > D
Potency Range (difference between most potent and least potent binding) (hSERT, hNET, hDAT): 3.0 fold
Ki [1, 6]: 88 ± 10 nM
IC50 (CYP2D6): 4000 nM
IC50 (hERG): 39200 nM
Ki [2]: 24 ± 4 nM
Immobility in forced swim test vs saline (Male Sprague-Dawley rats; 5 mg/kg IP): statistically (P<0.04) less immobility
Swimming in forced swim test vs saline (Male Sprague-Dawley rats; 5 mg/kg IP): statistically (P<0.04) more swimming behavior
Antidepressant activity in forced swim test compared with imipramine (15 mg/kg IP) (Male Sprague-Dawley rats; 5 mg/kg IP, FIG. 12A): antidepressant activity that was similar to that observed in rats treated with the positive control
Ki [3, 5]: 270 ± 50 nM
Kd [4, 7]: 124 ± 9 nM

CNC[C@@H](c1ccc2ccccc2c1)[C@H](N=[N+]=[N-])c1ccccc1 [MCJ001-N3-SR, (2R,3S)-3-azido-N-methyl-2-(naphthalen-2-yl)-3-phenylpropan-1-amine]
Potency (rank-order of potency of binding; S = hSERT, N = hNET, D = hDAT) (hSERT, hNET, hDAT): S > N > D
Potency Range (difference between most potent and least potent binding) (hSERT, hNET, hDAT): 3.8 fold
Ki [1, 6]: 640 ± 50 nM
Ki [2]: 1400 nM
Ki [3, 5]: 2000 ± 300 nM
Kd [4, 7]: 380 ± 40 nM

CNC[C@H](c1ccc2ccccc2c1)[C@H](OC)c1ccccc1 [MCJ001-OMe-SS, (2S,3S)-3-methoxy-N-methyl-2-(naphthalen-2-yl)-3-phenylpropan-1-amine]
Potency (rank-order of potency of binding; S = hSERT, N = hNET, D = hDAT) (hSERT, hNET, hDAT): N > S > D
Potency Range (difference between most potent and least potent binding) (hSERT, hNET, hDAT): 29 fold
Ki [1, 6]: 12.8 ± 0.9 nM
Potency of inhibition at CYP2D6, in words (CYP2D6): markedly reduced the potency of inhibition at CYP2D6
Ki [2]: 1.2 ± 0.2 nM
Immobility in forced swim test vs saline (Male Sprague-Dawley rats; 5 mg/kg IP): statistically (P<0.04) less immobility
Swimming in forced swim test vs saline (Male Sprague-Dawley rats; 5 mg/kg IP): statistically (P<0.04) more swimming behavior
Antidepressant activity in forced swim test compared with imipramine (15 mg/kg IP) (Male Sprague-Dawley rats; 5 mg/kg IP, FIG. 12A): antidepressant activity that was similar to that observed in rats treated with the positive control
Ki [3, 5]: 46 ± 5 nM
Kd [4, 7]: 13 ± 2 nM

CN(C)C[C@H](c1ccc2ccccc2c1)[C@H](N)c1ccccc1 [MCJ002-NH2-SS, (2S,3S)-N1,N1-dimethyl-2-(naphthalen-2-yl)-3-phenylpropane-1,3-diamine]
Potency (rank-order of potency of binding; S = hSERT, N = hNET, D = hDAT) (hSERT, hNET, hDAT): S > D > N
Potency Range (difference between most potent and least potent binding) (hSERT, hNET, hDAT): 5.3 fold
IC50 (hERG): 67900 nM
Immobility in forced swim test vs saline (Male Sprague-Dawley rats; 5 mg/kg IP): statistically (P<0.04) less immobility
Swimming in forced swim test vs saline (Male Sprague-Dawley rats; 5 mg/kg IP): statistically (P<0.04) more swimming behavior
Antidepressant activity in forced swim test compared with imipramine (15 mg/kg IP) (Male Sprague-Dawley rats; 5 mg/kg IP, FIG. 12A): antidepressant activity that was similar to that observed in rats treated with the positive control
Kd [4, 7]: 2.4 ± 0.3 nM
Binding at hSERT compared to PRC200-SS [4]: greater binding at hSERT
